Here are results for four molecules from paper PMC2707755 (Organic letters, 2009).

Where two headings read alike, the source gives them in different places.

The nature of data set [1]: cytotoxicity against A549 lung adenocarcinoma cell line. The class given is cell-based. The following applies: human, A549 lung adenocarcinoma cells.
Data set [2] is described as follows: cytotoxicity against HT29 colon adenocarcinoma cell line. The class given is cell-based. The note with it: human, HT29 colon adenocarcinoma cells.
Data set [3] can be described thus: cytotoxicity against MCF7 breast carcinoma cell line. The class given is cell-based. The following applies: human, MCF7 breast carcinoma cells.
Data set [4] relates to PP-1. Put plainly: PP inhibition assay, PP-1. The class given is biochemical. The note with it: triplicate.
The subject of data set [5] is PP-2A. Put plainly: PP inhibition assay, PP-2A. The note with it: triplicate. The class given is biochemical.
A further data set relates to A549 lung adenocarcinoma. The data set is described as follows: cytotoxicity against A549 lung adenocarcinoma cell line. The class given is cell-based. The following applies: read-out: cytotoxicity IC50, A549; A549 lung adenocarcinoma.
In a further data set the test system is Du145 colon carcinoma. Put plainly: cytotoxicity against Du145 colon carcinoma cell line. The class given is cell-based. The note with it: read-out: cytotoxicity IC50, Du145.
Data set [6] has as its system HT29 colon adenocarcinoma. Put plainly: cytotoxicity against HT29 colon adenocarcinoma cell line. The class given is cell-based. The following applies: read-out: cytotoxicity IC50, HT29; HT29 colon adenocarcinoma.
In a further data set the test system is MCF7 breast carcinoma. The data set is described as follows: cytotoxicity against MCF7 breast carcinoma cell line. The note with it: read-out: cytotoxicity IC50, MCF7; MCF7 breast carcinoma. The class given is cell-based.
Data set [7] relates to PP-1. The note with it: cited from earlier work.
For data set [8], the system named is PP-2A. The note with it: read-out: IC50 PP-2A; cited from earlier work.
Setting [9] is: read-out: IC50 PP-1, pH 7.5, pH 7.5.
Setting [10] is: read-out: IC50 PP-1, pH 8.4, pH 8.4.

A word on the IC50: it is the midpoint of a concentration-inhibition curve. Consider `CO[C@H]([C@H](O)CC(=O)[C@@H](C)[C@@H](O)CC[C@@H](C)[C@@H]1O[C@]2(CC[C@@H](C)[C@H](CC[C@H](C)C(C)=O)O2)CC[C@@H]1C)[C@H](OC(=O)C[C@@H](O)C1=C(C)C(=O)OC1=O)C(C)C` [compound 1, Tautomycin, reference compound], for which the IC50 in [1] amounted to 1.66 ± 0.14 µM; in data set [2] it was 0.59 ± 0.01 µM; in data set [3] it was 1.8 ± 0.12 µM; with PP-1 [4] (setting [9]), 0.00058 µM; in the data set with PP-1 [4] (setting [10]), 0.00086 µM; with PP-2A [5] (read-out: IC50 PP-2A, pH 7.5) it was 0.015 µM. Moreover, the IC50 in the data set with PP-2A [5] (read-out: IC50 PP-2A, pH 8.4) was determined as 0.0426 µM.
3′-deshydroxy-TTM [compound 3]: the half-inhibitory concentration (IC50) with A549 lung adenocarcinoma was determined as 26.6 ± 6.4 µM; with Du145 colon carcinoma, 4.24 ± 0.11 µM; in data set [6], 7.35 ± 0.19 µM; with MCF7 breast carcinoma, 15.6 ± 0.9 µM; in the data set on PP-1 [4] (setting [9]), 0.47 µM; in the data set on PP-1 [4] (setting [10]), 0.677 µM. For the same molecule, the IC50 worked out at 15.6 µM in the data set with PP-2A [5] (read-out: IC50 PP-2A, pH 7.5) and 15.3 µM in the data set with PP-2A [5] (read-out: IC50 PP-2A, pH 8.4).
Regarding tautomycetin [compound 2], the “higher affinity for PP-1 than for PP-2A” value with PP-1 [7] (PP-1 over PP-2A) was ~40 fold. Moreover, the IC50 in the data set with PP-1 [7] (read-out: IC50 PP-1) was 0.0016 µM; in the data set with PP-2A [8] it was 0.062 µM.
For C3′ epi-TTM, the “less effective at PP-1 inhibition than 1” value in the data set on PP-1 [7] (relative to 1) is on record as ~ 1000 fold.
